Legend:
Type in all cases: cell-based
OVCAR-8 = assay: NCI 60 cell assay, ovarian OVCAR-8; conditions: Homo sapiens, 48 h; OVCAR-8 (ovarian); drug exposure two days, SRB endpoint; read-out: GI-50 value
Description: (§1) Samples were tested in the standard National Cancer Institute 60-cell line protocol. First, they were tested against all 60 cell lines in a single final concentration of 10 micromolar. Then, they were separately tested in five 10-fold dilutions. The drug exposure was two days, with an SRB endpoint.

IGROV1 = assay: NCI 60 cell assay, ovarian IGROV1; conditions: Homo sapiens, IGROV-1, 48 h, drug exposure two days, SRB endpoint, read-out: GI-50 value
Description: as §1

786-0 = assay: NCI 60 cell assay, renal 786-0; conditions: Homo sapiens, 48 h; 786-0 (renal); drug exposure two days, SRB endpoint; read-out: GI-50 value
Description: as §1

HCT-15 = assay: NCI 60 cell assay, colon HCT-15; conditions: Homo sapiens, 48 h; HCT-15 (colon); drug exposure two days, SRB endpoint; read-out: GI-50 value
Description: as §1

HL-60(TB) = assay: NCI 60 cell assay, leukemia HL-60(TB); conditions: Homo sapiens, 48 h; HL-60(TB) (leukemia); drug exposure two days, SRB endpoint; read-out: GI-50 value
Description: as §1

HS 578T = assay: NCI 60 cell assay, breast HS 578T; conditions: Homo sapiens, 48 h; HS 578T (breast); drug exposure two days, SRB endpoint; read-out: GI-50 value
Description: as §1

NCI-H522 = assay: NCI 60 cell assay, NSCLC NCI-H522; conditions: Homo sapiens, 48 h, drug exposure two days, SRB endpoint, read-out: GI-50 value
Description: as §1

U251 = assay: NCI 60 cell assay, CNS U251; conditions: Homo sapiens, U-251, 48 h, drug exposure two days, SRB endpoint, read-out: GI-50 value
Description: as §1

SN12C = assay: NCI 60 cell assay, renal SN12C; conditions: Homo sapiens, 48 h, drug exposure two days, SRB endpoint, read-out: GI-50 value
Description: as §1

TK-10 = assay: NCI 60 cell assay, renal TK-10; conditions: Homo sapiens, 48 h; TK-10 (renal); drug exposure two days, SRB endpoint; read-out: GI-50 value
Description: as §1

OVCAR-4 = assay: NCI 60 cell assay, ovarian OVCAR-4; conditions: Homo sapiens, 48 h; OVCAR-4 (ovarian); drug exposure two days, SRB endpoint; read-out: GI-50 value
Description: as §1

OVCAR-5 = assay: NCI 60 cell assay, ovarian OVCAR-5; conditions: Homo sapiens, 48 h; OVCAR-5 (ovarian); drug exposure two days, SRB endpoint; read-out: GI-50 value
Description: as §1

A498 = assay: NCI 60 cell assay, renal A498; conditions: Homo sapiens, 48 h, drug exposure two days, SRB endpoint, read-out: GI-50 value
Description: as §1

SK-MEL-5 = assay: NCI 60 cell assay, melanoma SK-MEL-5; conditions: Homo sapiens, 48 h; SK-MEL-5 (melanoma); drug exposure two days, SRB endpoint; read-out: GI-50 value
Description: as §1

HT29 = assay: NCI 60 cell assay, colon HT29; conditions: Homo sapiens, HT-29, 48 h, drug exposure two days, SRB endpoint, read-out: GI-50 value
Description: as §1

NCI/ADR-RES = assay: NCI 60 cell assay, ovarian NCI/ADR-RES; conditions: Homo sapiens, 48 h, drug exposure two days, SRB endpoint, read-out: GI-50 value
Description: as §1

UO-31 = assay: NCI 60 cell assay, renal UO-31; conditions: Homo sapiens, 48 h; UO-31 (renal); drug exposure two days, SRB endpoint; read-out: GI-50 value
Description: as §1

UACC-257 = assay: NCI 60 cell assay, melanoma UACC-257; conditions: Homo sapiens, 48 h; UACC-257 (melanoma); drug exposure two days, SRB endpoint; read-out: GI-50 value
Description: as §1

CCRF-CEM = assay: NCI 60 cell assay, leukemia CCRF-CEM; conditions: Homo sapiens, 48 h, drug exposure two days, SRB endpoint, read-out: GI-50 value
Description: as §1

HCC-2998 = assay: NCI 60 cell assay, colon HCC-2998; conditions: Homo sapiens, 48 h; HCC-2998 (colon); drug exposure two days, SRB endpoint; read-out: GI-50 value
Description: as §1

A549/ATCC = assay: NCI 60 cell assay, NSCLC A549/ATCC; conditions: Homo sapiens, 48 h, drug exposure two days, SRB endpoint, read-out: GI-50 value
Description: as §1

NCI-H322M = assay: NCI 60 cell assay, NSCLC NCI-H322M; conditions: Homo sapiens, 48 h, drug exposure two days, SRB endpoint, read-out: GI-50 value
Description: as §1

SF-295 = assay: NCI 60 cell assay, CNS SF-295; conditions: Homo sapiens, 48 h; SF-295 (CNS); drug exposure two days, SRB endpoint; read-out: GI-50 value
Description: as §1

RXF 393 = assay: NCI 60 cell assay, renal RXF 393; conditions: Homo sapiens, 48 h; RXF 393 (renal); drug exposure two days, SRB endpoint; read-out: GI-50 value
Description: as §1

SW-620 = assay: NCI 60 cell assay, colon SW-620; conditions: Homo sapiens, 48 h; SW-620 (colon); drug exposure two days, SRB endpoint; read-out: GI-50 value
Description: as §1

HOP-92 = assay: NCI 60 cell assay, NSCLC HOP-92; conditions: Homo sapiens, 48 h; HOP-92 (NSCLC); drug exposure two days, SRB endpoint; read-out: GI-50 value
Description: as §1

SK-OV-3 = assay: NCI 60 cell assay, ovarian SK-OV-3; conditions: Homo sapiens, 48 h; SK-OV-3 (ovarian); drug exposure two days, SRB endpoint; read-out: GI-50 value
Description: as §1

SMILES | GI50 (OVCAR-8) [µM] | GI50 (IGROV1) [µM] | GI50 (786-0) [µM] | GI50 (HCT-15) [µM] | GI50 (HL-60(TB)) [µM] | GI50 (HS 578T) [µM] | GI50 (NCI-H522) [µM] | GI50 (U251) [µM] | GI50 (SN12C) [µM] | GI50 (TK-10) [µM] | GI50 (OVCAR-4) [µM] | GI50 (OVCAR-5) [µM] | GI50 (A498) [µM] | GI50 (SK-MEL-5) [µM] | GI50 (HT29) [µM] | GI50 (NCI/ADR-RES) [µM] | GI50 (UO-31) [µM] | GI50 (UACC-257) [µM] | GI50 (CCRF-CEM) [µM] | GI50 (HCC-2998) [µM] | other results
CC1=C2[C@@H](CC1)[C@]1(C)O[C@@](C(C)C)(C[C@H]1OC(=O)[C@H](C)O)[C@H]2OC(=O)C=Cc1ccccc1 [(Il), (3aR,4S,5R,7R,8S)-5-(((S)-2-hydroxypropanoyl)oxy)-7-isopropyl-1,4-dimethyl-2,3,3a,4,5,6,7,8-octahydro-4,7-epoxyazulen-8-yl cinnamate] | 0.35 | 19 | 13 | 12 | 11 | 0.098 | 13 | 14 | 0.21 | 17 | 12 | 18 | 0.21 | 13 | 14 | 0.42 | 0.71 | 15 | 16 | 14 | GI50 (A549/ATCC): 13 µM; GI50 (NCI-H322M): 19 µM; GI50 (SF-295): 11 µM; GI50 (RXF 393): 0.045 µM; GI50 (SW-620): 15 µM; GI50 (HOP-92): 6 µM; GI50 (SK-OV-3): 15 µM
CC(=O)O[C@@H]1C[C@]2(C(C)C)O[C@@]1(C)[C@@H]1CCC(C)=C1[C@@H]2OC(=O)C=Cc1ccccc1 [(Im), (3aR,4S,5R,7R,8S)-5-acetoxy-7-isopropyl-1,4-dimethyl-2,3,3a,4,5,6,7,8-octahydro-4,7-epoxyazulen-8-yl cinnamate] | 9 | 100 | 85 | 32 | 25 | 4.8 | 21 | 48 | 10 | 93 | 11 | 100 | 2.2 | 22 | 31 | 23 | 20 | 28 | 32 | 68 | GI50 (A549/ATCC): 47 µM; GI50 (NCI-H322M): 100 µM; GI50 (SF-295): 39 µM; GI50 (RXF 393): 8.9 µM; GI50 (SW-620): 39 µM; GI50 (SK-OV-3): 71 µM
CC1=C2[C@@H](CC1)[C@]1(C)O[C@@](C3CCCCC3)(C[C@H]1OC(=O)CO)[C@H]2OC(=O)C=Cc1ccccc1 [(Iq), (3aR,4S,5R,7R,8S)-7-cyclohexyl-5-(2-hydroxyacetoxy)-1,4-dimethyl-2,3,3a,4,5,6,7,8-octahydro-4,7-epoxyazulen-8-yl cinnamate] | 0.1 | 19 | 13 | 10 | 15 | 0.03 | 15 | 13 | 0.06 | 17 | 15 | 19 | 0.021 | 14 | 12 | 0.25 | 0.46 | 14 | 15 | 13 | GI50 (A549/ATCC): 11 µM; GI50 (NCI-H322M): 17 µM; GI50 (SF-295): 12 µM; GI50 (RXF 393): 0.025 µM; GI50 (SW-620): 14 µM; GI50 (HOP-92): 6 µM; GI50 (SK-OV-3): 13 µM
CC1=C2[C@@H](CC1)[C@]1(C)O[C@@](c3ccccc3)(C[C@H]1OC(=O)CO)[C@H]2OC(=O)C=Cc1ccccc1 [(Ir), (3aR,4S,5R,7R,8S)-5-(2-hydroxyacetoxy)-1,4-dimethyl-7-phenyl-2,3,3a,4,5,6,7,8-octahydro-4,7-epoxyazulen-8-yl cinnamate] | 0.26 | 24 | 14 | 13 | 16 | 0.033 | 17 | 13 | 11 | 23 | 15 | 22 | 0.089 | 15 | 16 | 0.34 | 0.55 | 19 | 20 | 15 | GI50 (A549/ATCC): 15 µM; GI50 (NCI-H322M): 22 µM; GI50 (SF-295): 14 µM; GI50 (RXF 393): 0.027 µM; GI50 (SW-620): 21 µM; GI50 (HOP-92): 14 µM; GI50 (SK-OV-3): 19 µM
CC1=C2[C@@H](CC1)[C@]1(C)O[C@@](C(C)C)(C[C@H]1OC(=O)CO)[C@H]2OC(=O)/C=C/c1ccccc1 [Compound (Ih)] | 0.09 | 46 | 35 | 32 | 35 | 0.015 | 40 | 35 | 20 | 100 | 35 | 41 | 0.034 | 35 | 39 | 0.13 | 0.04 | 40 | 42 | 100 | GI50 (A549/ATCC): 33 µM; GI50 (NCI-H322M): 43 µM; GI50 (SF-295): 40 µM; GI50 (RXF 393): 0.13 µM; GI50 (SW-620): 40 µM; GI50 (HOP-92): 100 µM; GI50 (SK-OV-3): 44 µM
CC1=C2[C@@H](CC1)[C@]1(C)O[C@@](C(C)C)(C[C@H]1OC(=O)CO)[C@H]2OC(=O)C1CC1c1ccccc1 (stereo partly drawn) [Compound (Ij), (3aR,4S,5R,7R,8S)-5-(2-hydroxyacetoxy)-7-isopropyl-1,4-dimethyl-2,3,3a,4,5,6,7,8-octahydro-4,7-epoxyazulen-8-yl-2-phenylcyclopropane-1-carboxylate] | 13 | 19 | 15 | 13 | 14 | 0.15 | 13 | 15 | 7.4 | 17 | 14 | 20 | 0.27 | 16 | 13 | 12 | 11 | 16 | 18 | 14 | GI50 (A549/ATCC): 13 µM; GI50 (NCI-H322M): 19 µM; GI50 (SF-295): 13 µM; GI50 (RXF 393): 0.069 µM; GI50 (SW-620): 17 µM; GI50 (HOP-92): 13 µM; GI50 (SK-OV-3): 17 µM
CC1=C2[C@@H](CC1)[C@]1(C)O[C@@](C3CC3)(C[C@H]1OC(=O)CO)[C@H]2OC(=O)C=Cc1ccccc1 [Compound (Is), (3aR,4S,5R,7R,8S)-7-cyclopropyl-5-(2-hydroxyacetoxy)-1,4-dimethyl-2,3,3a,4,5,6,7,8-octahydro-4,7-epoxyazulen-8-yl cinnamate] | 0.054 | 19 | 13 | 14 | 12 | 0.023 | 17 | 15 | 0.052 | 19 | 15 | 17 | 0.11 | 18 | 17 | 0.071 | 0.33 | 16 | 19 | 17 | GI50 (A549/ATCC): 14 µM; GI50 (NCI-H322M): 17 µM; GI50 (SF-295): 17 µM; GI50 (RXF 393): 0.014 µM; GI50 (SW-620): 20 µM; GI50 (HOP-92): 17 µM; GI50 (SK-OV-3): 16 µM

Reference: patent US10287297B2, “Epoxyazulene derivatives useful for treating cancer and diabetes” (The United States of America, as represented by the …, priority 2015, dated 2019)
